Results on five molecules are retold here after patent US20040146971A1, “Novel p53 inducible protein” (priority 2001, published 2004).

The subject of experiment [1] is Scotin. As to the kind of experiment: Western blot of Scotin protein induction in mouse embryonic fibroblasts. Format: cell-based. The conditions noted are these: 60 ng/ml. As for the experimental part: (§1) FIG. 7 is a western blot which illustrates that p53 is necessary and sufficient to induce Scotin protein expression. a) Only primary mouse embryonic fibroblasts (MEF) expressing WTp53 induce Scotin after UV irradiation or Actinomycin D treatment. MEF from p53−/− and p53+/+ littermate mice were exposed to UV-C light (20 J/m2) or Actinomycin D (60 ng/ml). Proteins were extracted at time indicated after treatment and analysed by Western blot by using affinity purified rabbit polyclonal anti-mouse-Scotin antibody. As a positive control, p53 and Waf induction were determined by using CM5 rabbit polyclonal anti-mouse p53 antibody and F5 mouse monoclonal anti-Waf antibody. […] Scotin expression was analysed by Western blot by using affinity purified rabbit polyclonal anti-human Scotin antibody. […]
(§2) Cells were washed and scraped in PBS buffer and centrifuged at 2000 rpm for 2 min. […] Protein concentration of the supernatant was determined by the Bradford assay. […]
(§3) In order to further characterise Scotin protein, it was essential to identify cell lines that could induce Scotin upon DNA damage. […] Proteins were extracted after treatment and levels analysed by Western blot Waf and p53 protein levels were used as an indication of p53 activation.
A general note: A western blot detects proteins with antibodies after separation by electrophoresis.

For experiment [2], the system named is Scotin. As to the kind of experiment: Western blot of Scotin protein induction in human fibroblasts and tumour cell lines. Format: cell-based. As for the experimental part: as §1, §2, §3
Experiment [3] deals with NIH3T3-derived Scotin antisense and control antisense fibroblasts. As to the kind of experiment: Cell survival by Giemsa staining, Scotin antisense versus control antisense fibroblasts. Format: cell-based, mouse. To be noted: different doses. As for the experimental part:
Cell survival was determinated as described in the Experimental Procedures by trypan blue 24 h after irradiation. Histogram represents the compilation of 4 independent experiments. Standard Deviation is reported as error bars. b) Clonoge assay; Scotin antisense and control antisense expressing fibroblasts were treated at concentrations indicated with the DNA-damaging agent Doxorubicin (Dx) or with the activators of ER stress Thapsigargin (Tg) or Tunicamycin (Tu) or with an activator of mitochondrial stress, FCCP. After treatment, cells were fixed in methanol and stained by Giemsa.
Cells were treated with different doses of doxorubicin for 24 h and were allowed to recover for 24 h after treatment. Cell survival was estimated by giemsa staining.
(§4) The list of conditions known to trigger the ER stress response includes treatment of cells with thapsigargin, which interferes with calcium flux across the ER membrane, or tunicamycin, an inhibitor of N-linked glycosylation, or reducing agents, or deprivation of nutrients such as glucose, amino acids, or hypoxia. […] NIH3T3, p53−/−, Scotin antisense and control antisense expressing fibroblasts were treated with different doses of thapsigargin or tunicamycin or FCCP, a protonophore inducing mitochondrial stress. Cell survival was estimated by giemsa staining (FIG. 12.3).

A further experiment deals with p53−/− fibroblasts. As to the kind of experiment: Apoptosis of p53-/- fibroblasts after ER stress activators. Format: cell-based, mouse. The procedure:
as §4

The subject of a further experiment is NIH3T3 fibroblasts. As to the kind of experiment: TUNEL staining of drug-treated NIH3T3 fibroblasts. Format: cell-based, mouse. The conditions noted are these: NIH3T3, 24 h; tunicamycin 1 μg/ml, thapsigargin 150 nM. As for the experimental part:
NIH3T3 fibroblasts were treated for 24 h with 1 μg/ml of tunicamycin, fixed by paraformaldehyde and stained by TUNEL. Cells in apoptosis are stained by TUNEL (eft hand images).
For TUNEL assay, cells (3×10^5) seeded on 2-well glass chamber slide, were transfected as described. Cells were fixed for 30 min at RT in 4% paraformaldehyde in PBS, washed in PBS and permeabilised 2 min at 4° C. in 0.1% Triton X-100, 0.1% sodium citrate. The TUNEL staining was performed accordingly to the manufacturer's protocol (In Situ Cell Death Detection kit, Roche Molecular Biochemicals). The apoptotic cells presenting fragmented DNA were then labelled in green after incorporation of fluorescein.

Starred links: 1 amine or outer side, 2 acyl side, 3 side chain; linkers in the order of their positions; H or OH if unused. Positions of bridges follow the written chain, without caps; N, C: chain ends. Non-standard residues stand in square brackets, D forms with d. Residues, ends and D or L forms follow the SMILES beside them. Chains are numbered I, II in the order given. Actinocin(9to1) = Cc1c2oc3c(C)ccc(C(=O)[*:1])c3nc-2c(C(=O)[*:2])c(N)c1=O; NMeV = CN[C@H](C(=O)O)C(C)C; Sar = CNCC(=O)O

On to `Cc1c2oc3c(C)ccc(C(=O)N[C@@H]4C(=O)N[C@H](C(C)C)C(=O)N5CCC[C@H]5C(=O)N(C)CC(=O)N(C)[C@@H](C(C)C)C(=O)O[C@@H]4C)c3nc-2c(C(=O)N[C@@H]2C(=O)N[C@H](C(C)C)C(=O)N3CCC[C@H]3C(=O)N(C)CC(=O)N(C)[C@@H](C(C)C)C(=O)O[C@@H]2C)c(N)c1=O` [Actinomycin D] (I: T[dV]P[Sar][NMeV] / II: T[dV]P[Sar][NMeV]; ester I:1-I:C, II:1-II:C; linker I:N-II:N via Actinocin(9to1)), for which the Scotin protein level entry in the experiment on Scotin [1] (p53+/+ MEF) is recorded as “clearly accumulated”; in the experiment on Scotin [1] (p53−/− MEF), “not”; in the experiment with Scotin [2] (human primary fibroblast and tumour cells expressing wt p53, 60 ng/ml), “clearly accumulated”; in the experiment with Scotin [2] (human tumour cell lines devoid of p53 expression, 60 ng/ml), “not”.
For `N#CC(C#N)=NNc1ccc(OC(F)(F)F)cc1` [FCCP], the “resistance of Scotin antisense cells compared with control antisense cells to cell death induced by the drug” value in experiment [3] is listed as “not”.
On the same count and under the same terms, in the case of `COc1cccc2c1C(=O)c1c(O)c3c(c(O)c1C2=O)C[C@@](O)(C(=O)CO)C[C@@H]3O[C@H]1C[C@H](N)[C@H](O)[C@H](C)O1` [doxorubicin] it was “more resistant”.
In the case of `C/C=C(/C)C(=O)O[C@H]1C(C)=C2[C@H]([C@@H]1OC(=O)CCCCCCC)[C@@](C)(OC(C)=O)C[C@H](OC(=O)CCC)[C@@]1(O)[C@H]2OC(=O)[C@@]1(C)O` [thapsigargin], the “apoptosis induced by the drug in p53−/− fibroblasts” value in the experiment on p53−/− fibroblasts was “resistant”. The “resistance of Scotin antisense cells compared with control antisense cells to cell death induced by the drug” value in experiment [3] is “more resistant”.
In the case of tunicamycin, the “apoptosis induced by the drug in p53−/− fibroblasts” value in the experiment with p53−/− fibroblasts is on record as “resistant”. Also, the “cell death by TUNEL” value in the experiment with NIH3T3 fibroblasts is reported as “die by apoptosis”. Also, the “resistance of Scotin antisense cells compared with control antisense cells to cell death induced by the drug” value in experiment [3] is on record as “more resistant”.
